The source of these data is article PMC5725665, “Discovery of a Highly Selective Cell‐Active Inhibitor of the Histone Lysine Demethylases KDM2/7” (Angewandte Chemie (International Ed. in English), 2017).

Experiment in all cases: biochemical
Test [1] addresses JARID1A (KDM5A) (Homo sapiens, UniProt P29375). Details: AlphaScreen histone demethylase activity assay. The source says: (§1) A base‐mediated 5‐endo‐trig cyclization of a C‐2‐substituted aromatic imine afforded the racemic indoline core with two adjacent stereocenters. Subsequent acylation of the indoline ring system conferred stability towards oxidation and provided a handle for modulating polarity. Finally, metal‐catalysed cross‐coupling of the aryl bromide provided access to a variety of linkers between the indoline core and pyrrolidine capping group. In total, 45 racemic compounds were synthesized, and IC50 values for inhibition of KDM2A were determined using two orthogonal enzyme activity assays: AlphaScreen25 and RapidFire MS26 (see Section S3.1 in the Supporting Information for complete inhibition data). Key structure–activity relationships are summarized below (Scheme 1 B, compounds 2–12). […] In immunofluorescence assays using HeLa cells ectopically expressing catalytically active KDM2A, a dose‐dependent increase in H3K36me2 staining was observed upon incubation with (S,S)‐6, reflecting augmented cellular H3K36me2 levels (Figure 2 A and Section S3.3). […] To profile its selectivity, (S,S)‐6 was tested for inhibitory activity against a panel of KDMs, methyllysine binding motifs, and epigenetic enzymes.

Test [2] has as its target T1, JMJD2A (KDM4A) (Homo sapiens, UniProt O75164).
T1 sequence (O75164 1-1064): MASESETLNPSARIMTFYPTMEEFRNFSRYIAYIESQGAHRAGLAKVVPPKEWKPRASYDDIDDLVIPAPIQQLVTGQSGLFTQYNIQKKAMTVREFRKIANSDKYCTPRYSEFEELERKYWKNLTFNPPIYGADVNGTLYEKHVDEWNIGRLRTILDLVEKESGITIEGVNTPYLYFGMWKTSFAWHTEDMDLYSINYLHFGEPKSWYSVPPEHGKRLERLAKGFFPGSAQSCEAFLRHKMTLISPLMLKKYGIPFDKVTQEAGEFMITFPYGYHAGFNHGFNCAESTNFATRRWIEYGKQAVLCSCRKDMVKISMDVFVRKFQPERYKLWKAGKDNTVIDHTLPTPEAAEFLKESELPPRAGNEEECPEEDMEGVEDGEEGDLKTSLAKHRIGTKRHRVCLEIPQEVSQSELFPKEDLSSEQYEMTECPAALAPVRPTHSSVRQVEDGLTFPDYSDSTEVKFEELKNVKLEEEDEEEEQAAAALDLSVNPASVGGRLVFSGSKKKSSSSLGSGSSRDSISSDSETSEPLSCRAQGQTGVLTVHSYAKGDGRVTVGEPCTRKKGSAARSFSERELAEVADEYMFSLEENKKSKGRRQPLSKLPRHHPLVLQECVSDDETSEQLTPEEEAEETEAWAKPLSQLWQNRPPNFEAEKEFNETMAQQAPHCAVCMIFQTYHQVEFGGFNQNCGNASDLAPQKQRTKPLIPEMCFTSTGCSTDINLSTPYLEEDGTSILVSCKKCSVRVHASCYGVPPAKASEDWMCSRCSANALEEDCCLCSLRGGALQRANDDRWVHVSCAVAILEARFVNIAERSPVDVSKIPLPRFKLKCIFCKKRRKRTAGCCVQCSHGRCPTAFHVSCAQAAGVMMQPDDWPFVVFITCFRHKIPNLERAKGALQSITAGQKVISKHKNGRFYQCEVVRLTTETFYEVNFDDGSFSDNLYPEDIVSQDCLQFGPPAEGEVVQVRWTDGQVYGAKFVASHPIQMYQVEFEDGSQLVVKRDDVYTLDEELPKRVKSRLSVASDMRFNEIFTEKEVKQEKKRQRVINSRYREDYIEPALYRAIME
Details: AlphaScreen histone demethylase activity assay. The following applies: read-out: KDM4A % Inhib. (18.75 uM).

Test [3] concerns the target T1, JMJD2A (KDM4A). Also noted: AlphaScreen histone demethylase activity assay. The following applies: for IC50: read-out: KDM4A pIC50 (converted); for KDM4A pIC50: inhibitor.
Text: as §1

Test [4] deals with T2, KDM2A (Homo sapiens, UniProt Q9Y2K7).
T2 construct: isolated enzyme
T2 sequence (Q9Y2K7 1-517 limits assumed): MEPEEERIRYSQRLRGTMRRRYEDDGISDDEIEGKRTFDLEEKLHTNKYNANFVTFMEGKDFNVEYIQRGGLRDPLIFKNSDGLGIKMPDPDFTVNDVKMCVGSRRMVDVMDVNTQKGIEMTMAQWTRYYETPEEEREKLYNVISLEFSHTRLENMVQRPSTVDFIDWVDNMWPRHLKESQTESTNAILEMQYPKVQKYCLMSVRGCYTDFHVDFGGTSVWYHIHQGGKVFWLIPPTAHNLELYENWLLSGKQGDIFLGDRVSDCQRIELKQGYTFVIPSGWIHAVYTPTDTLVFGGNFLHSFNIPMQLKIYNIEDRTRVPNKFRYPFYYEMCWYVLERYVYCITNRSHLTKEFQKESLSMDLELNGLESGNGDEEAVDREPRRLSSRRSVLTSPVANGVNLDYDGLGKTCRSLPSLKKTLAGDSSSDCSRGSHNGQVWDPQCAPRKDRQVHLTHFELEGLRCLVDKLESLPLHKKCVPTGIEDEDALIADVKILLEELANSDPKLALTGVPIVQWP
Details: RapidFire MS histone peptide demethylation assay. To be noted: for KDM2A RapidFire pIC50: inhibitor. As for the experimental part:
[formula] Scheme 1 A) General synthetic strategy for racemic synthesis of KDM2A inhibitors. Reagents and conditions: i) Zn powder (10 equiv), NH4Cl (15 equiv), 5:1 acetone/H2O or H2, Pd/C (10 % w/w), EtOAc; ii) ArCHO (1.3 equiv), MgSO4 (5 equiv), PhMe or ArCHO (1.3 equiv), pyrrolidine (0.1 equiv), 3 Å sieves, CH2Cl2; iii) KO^tBu (1.1 equiv), PhMe, 0 °C; iv) R^3COCl (2–5 equiv), pyridine (2–5 equiv), CH2Cl2; v) metal‐catalysed cross‐coupling. B) Key structure–activity relationships. IC50 values were determined by RapidFire MS and confirmed by AlphaScreen. All compounds are racemic. C) Catalytic enantioselective synthesis. Reagents and conditions: i) CsOH⋅H2O (2.0 equiv), catalyst 14/16 (10 mol %), PhMe, −30 °C. Catalyst 14: 89 %, d.r. 10:1, e.r. 88:12; catalyst 16: 84 %, d.r. 7:1, e.r. 17:83; ii) CH3COCl (2.0 equiv), pyridine (2.0 equiv), CH2Cl2; iii) H2, Pd/C (10 % w/w), 88 % (2 steps); iv) K2CO3 (5 equiv), Br(CH2)7Br (4 equiv), acetone, reflux, 38 %; v) K2CO3 (5 equiv) pyrrolidine (4 equiv), CH3CN, 65 %; vi) PhN(SO2CF3)2 (1.1 equiv), DIPEA (2.0 equiv), CH2Cl2, 0 °C, 85 %; vii) 7‐pyrrolidine‐hept‐1‐yne (1.5 equiv), PdCl2(PPh3)2 (5 mol %), CuI (5 mol %), HN(^iPr)2, 75 °C, 79 %; viii) H2, Pd/C (10 % w/w), MeOH, 74 %. DIPEA=(^iPr)2NEt. A base‐mediated 5‐endo‐trig cyclization of a C‐2‐substituted aromatic imine afforded the racemic indoline core with two adjacent stereocenters. Subsequent acylation of the indoline ring system conferred stability towards oxidation and provided a handle for modulating polarity. Finally, metal‐catalysed cross‐coupling of the aryl bromide provided access to a variety of linkers between the indoline core and pyrrolidine capping group. In total, 45 racemic compounds were synthesized, and IC50 values for inhibition of KDM2A were determined using two orthogonal enzyme activity assays: AlphaScreen25 and RapidFire MS26 (see Section S3.1 in the Supporting Information for complete inhibition data). Key structure–activity relationships are summarized below (Scheme 1 B, compounds 2–12).

The structures appear in SMILES notation.

Chain of JARID1A (KDM5A) (P29375 whole entry): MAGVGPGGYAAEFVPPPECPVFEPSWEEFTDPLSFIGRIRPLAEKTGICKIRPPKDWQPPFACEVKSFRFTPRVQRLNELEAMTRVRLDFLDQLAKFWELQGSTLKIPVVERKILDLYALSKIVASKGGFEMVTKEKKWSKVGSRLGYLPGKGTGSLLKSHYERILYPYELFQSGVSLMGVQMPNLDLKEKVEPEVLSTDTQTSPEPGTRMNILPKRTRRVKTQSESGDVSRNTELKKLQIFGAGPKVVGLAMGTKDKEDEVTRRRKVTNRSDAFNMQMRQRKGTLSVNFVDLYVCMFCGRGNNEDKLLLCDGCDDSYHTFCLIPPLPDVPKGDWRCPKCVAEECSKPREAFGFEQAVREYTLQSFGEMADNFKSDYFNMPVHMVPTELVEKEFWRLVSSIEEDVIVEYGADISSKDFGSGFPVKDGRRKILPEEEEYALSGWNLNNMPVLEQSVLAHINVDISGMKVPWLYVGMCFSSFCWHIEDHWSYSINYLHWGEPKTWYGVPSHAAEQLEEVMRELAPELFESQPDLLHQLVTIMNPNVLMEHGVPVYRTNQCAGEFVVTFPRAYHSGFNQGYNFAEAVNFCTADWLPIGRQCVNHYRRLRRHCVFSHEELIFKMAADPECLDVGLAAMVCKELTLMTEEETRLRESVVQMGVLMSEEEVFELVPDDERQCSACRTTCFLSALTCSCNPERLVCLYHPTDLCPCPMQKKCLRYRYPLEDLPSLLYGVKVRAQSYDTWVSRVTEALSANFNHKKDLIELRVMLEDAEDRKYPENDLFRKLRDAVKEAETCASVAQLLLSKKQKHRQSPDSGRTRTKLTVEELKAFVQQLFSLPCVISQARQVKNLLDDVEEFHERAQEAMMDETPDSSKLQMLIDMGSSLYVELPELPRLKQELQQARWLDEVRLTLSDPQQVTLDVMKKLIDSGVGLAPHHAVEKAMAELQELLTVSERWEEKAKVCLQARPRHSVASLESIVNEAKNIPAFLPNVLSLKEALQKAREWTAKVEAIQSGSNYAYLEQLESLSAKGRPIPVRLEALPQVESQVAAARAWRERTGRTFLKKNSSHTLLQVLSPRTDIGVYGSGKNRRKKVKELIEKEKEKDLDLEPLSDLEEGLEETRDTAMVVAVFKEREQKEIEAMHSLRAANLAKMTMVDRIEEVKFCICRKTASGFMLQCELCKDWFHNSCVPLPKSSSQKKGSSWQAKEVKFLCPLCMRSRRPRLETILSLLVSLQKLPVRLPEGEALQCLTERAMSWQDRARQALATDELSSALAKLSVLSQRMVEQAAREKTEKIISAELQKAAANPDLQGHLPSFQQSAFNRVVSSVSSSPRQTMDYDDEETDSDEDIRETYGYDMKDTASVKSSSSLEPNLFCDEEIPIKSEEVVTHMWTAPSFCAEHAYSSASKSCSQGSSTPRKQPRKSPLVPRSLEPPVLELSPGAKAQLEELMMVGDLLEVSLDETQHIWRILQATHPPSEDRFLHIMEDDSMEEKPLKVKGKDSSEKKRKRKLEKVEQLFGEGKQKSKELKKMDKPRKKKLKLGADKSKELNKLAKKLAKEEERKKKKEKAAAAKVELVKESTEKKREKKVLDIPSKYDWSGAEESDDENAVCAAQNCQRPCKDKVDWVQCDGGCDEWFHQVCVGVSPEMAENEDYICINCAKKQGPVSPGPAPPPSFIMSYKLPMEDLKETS

For `CC(=O)N1c2ccccc2[C@](C#N)(c2ccccc2)[C@H]1c1ccc(CCCCCCCN2CCCC2)o1` (racemic) [compound 7, 7], in test [1], the inhibition at 50 µM worked out at 47.5%. Further, the inhibition at 18.75 µM in test [2] worked out at 8.5%.

`CC(=O)N1c2ccccc2[C@](C#N)(c2ccccc2)[C@H]1c1cncc(OCCOCCOCCN2CCCC2)c1` (racemic) [compound 148, (2RS,3RS)-1-Acetyl-3-phenyl-2-(5-(2-(2-(2-(pyrrolidin-1-yl)ethoxy)ethoxy)ethoxy)pyridin-3-yl)indoline-3-carbonitrile]: in test [3], the IC50 was above 20 µM. Further, in test [2], the inhibition at 18.75 µM is -5.9%.

Turning to `CCOC(=O)C1(C#N)c2ccccc2N(C(C)=O)C1c1cncc(C=CCCCCCN2CCCC2)c1` (stereo not shown) [compound 124, 124], in test [1], the inhibition at 50 µM stood at 20%. For the same molecule, in test [2], the inhibition at 18.75 µM is -12.7%.

For the molecule `CC(=O)N1c2ccccc2[C@](C#N)(c2ccccc2)[C@H]1c1ccc(C#CCCCCCN2CCCC2)o1` (relative stereo) [compound 132, 132], the inhibition at 50 µM in test [1] was 49.1%. Also, in test [1] (inhibitor), the “KDM5A pIC50” value is recorded as below 4.3. The “KDM4A pIC50” value in test [3] was below 4.7. Moreover, the “KDM2A RapidFire pIC50” value in test [4] was determined as 5.990. Besides, the inhibition at 18.75 µM in test [2] stood at 18.3%.

Turning to `CC(=O)N1c2ccccc2[C@](C#N)(c2ccccc2)[C@H]1c1cncc(CCCCCCCN2CCCC2)c1` (racemic) [compound 6, 6], the inhibition at 50 µM in test [1] turned out to be 25.5%. For the same molecule, in test [2], the inhibition at 18.75 µM was -1.1%.

In the case of `CC(=O)N1c2ccccc2C(C#N)(c2ccccc2)C1c1cncc(C#CCCCCCN2CCCC2)c1` (stereo not shown) [compound 130, 130], the inhibition at 50 µM in test [1] turned out to be 30.9%. In addition, the inhibition at 18.75 µM in test [2] is -1.3%.

In the case of `CC(=O)N1c2ccccc2C(C#N)(c2ccccc2)C1c1cc(CCCCCCCN2CCCC2)co1` (stereo not shown) [compound 8, 8], the inhibition at 50 µM in test [1] came to 23%. Further, the inhibition at 18.75 µM in test [2] is 21.8%.

As to `CC(=O)N1c2ccccc2[C@](C#N)(c2ccccc2)[C@H]1c1cncc(OCCCCCCCN2CCCC2)c1` (racemic) [compound 3, 3], the inhibition at 50 µM in test [1] is 24%. In addition, the inhibition at 18.75 µM in test [2] is -5.4%.

Take `CC(=O)N1c2ccccc2[C@@](C#N)(c2ccccc2)[C@H]1c1cccc(/C=C/CCCCCN2CCCC2)c1` (relative stereo) [compound 126, 126]: the “KDM4A pIC50” value in test [3] is listed as below 4.7. Further, in test [4], the “KDM2A RapidFire pIC50” value is 5.983. Besides, the inhibition at 18.75 µM in test [2] is 27.8%.

Take `CC(=O)N1c2ccccc2[C@](C#N)(c2ccccc2)[C@H]1c1cncc(C#CCCCCCN2CCCC2)c1` (racemic) [compound 4, 4]: the inhibition at 50 µM in test [1] worked out at 39%. Further, the inhibition at 18.75 µM in test [2] was found to be 10.2%.

As for `CC(=O)N1c2ccccc2[C@](C#N)(c2ccccc2)[C@H]1c1cncc(CCCCCCCN2CCCC2)c1` [(R,R)-6], in test [1], the inhibition at 50 µM amounted to 40%. Further, the inhibition at 18.75 µM in test [2] amounted to 7.8%.

On to `CC(=O)N1c2ccccc2[C@@](C#N)(c2ccccc2)[C@H]1c1cncc(OCCCCCCCN2CCCC2)c1` (racemic) [compound 145, (2RS,3SR)-1-Acetyl-3-phenyl-2-(5-((7-(pyrrolidin-1-yl)heptyl)oxy)pyridin-3-yl)indoline-3-carbonitrile], for which the inhibition at 50 µM in test [1] is 36.7%. The IC50 is above 50.1 µM in test [1] (read-out: KDM5A pIC50 (converted)), above 20 µM in test [3] and 1.01 µM in test [4] (read-out: KDM2A RapidFire pIC50 (converted)). Also, in test [2], the inhibition at 18.75 µM was -9.59%.
